Results taken from patent publication US5591741A, “Fungicidal spiroheterocyclic derivatives” (American Cyanamid Company, priority 1993, dated 1997).

Assays:
Pyricularia oryzae = format: in vivo; conditions: rice seedlings, direct therapeutic foliar spray, 600 ppm, 4-5 days
Plasmopara viticola = test: Antisporulant activity against vine downy mildew (PVA); format: in vivo; conditions: vine leaves, antisporulant foliar spray, 600 ppm, 750 l/ha
In short: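 Cabernet Sauvignon vines (~8 cm) inoculated on lower leaf surfaces with 5×10^4 zoosporangia/ml, held 24 h at 21° C high humidity then 24 h glasshouse. Infected leaves sprayed underside with 600 ppm compound in 1:1 water/acetone, 0.04% Tween 20, 750 l/ha; 96 h glasshouse, 24 h humidity. Sporulating leaf area rated versus control.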

Alternaria solani = test: Activity against tomato early blight (AS); format: in vivo; conditions: Table VI; tomato seedlings, contact prophylactic foliar spray, 4 days
In short: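 Foliar contact prophylactic spray on tomato seedlings (cv Outdoor Girl, second true leaf expanded) in acetone/water 50:50 with 0.04% Tween 20; 24 h at 20° C, 40% R.H., then inoculation with 10^4 spores/ml A. solani conidia. Kept moist at 21° C; lesion cover rated 4 days post-inoculation against untreated or diluent-sprayed controls.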

Rhizoctonia solani = test: Activity against Rhizoctonia in-vitro (RSI); format: cell-based; conditions: 10 ppm, 10 days, 20° C., mycelial growth
In short: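 R. solani mycelial fragments (5×10^4/ml) in half-strength Potato Dextrose Broth with compound added from acetone to 10 ppm final. Mycelial growth assessed after 10 days at 20° C, rated against untreated or diluent control.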

[1] = test system: Pseudocercosporella herpotrichoides; test: Activity against wheat eyespot in-vitro (PHI); format: cell-based; conditions: 10 ppm, 10 days, 20° C., mycelial growth
In short: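 P. herpotrichoides mycelial fragments (5×10^4/ml) grown in half-strength PDB with compound at 10 ppm final, added from acetone. Incubated 10 days at 20 °C; mycelial growth rated against untreated or diluent controls.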

Leptosphaeria nodorum = test: Activity against wheat leafspot (LN); format: in vivo; conditions: direct therapeutic foliar spray, 600 ppm, 6-8 days
In short: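 Wheat cv Norman at single-leaf stage spray-inoculated with 1.5×10^6 conidia/ml, held 24 h at high humidity, then sprayed therapeutically with test compound at 600 ppm. Kept 6-8 days at 22° C, 70% humidity; lesion density per leaf rated against untreated or diluent-sprayed controls.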

[2] = test system: Erysiphe graminis f.sp. hordei; test: Activity against barley powdery mildew, direct therapeutic (EGT); format: in vivo; conditions: direct therapeutic foliar spray, 600 ppm, up to 7 days
In short: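 Barley seedlings (cv. Golden Promise, single-leaf stage) were dusted with mildew conidia one day before a therapeutic foliar spray of 600 ppm compound. Plants were kept at 18 °C and 40% humidity for up to 7 days, and sporulating leaf area was rated against untreated or diluent-sprayed controls.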

Botrytis cinerea = test: Direct protectant activity against broad bean grey mould (BCB); format: in vivo; conditions: direct protectant foliar spray, 600 ppm, 4 days
In short: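 Broad bean plants (cv The Sutton, two leaf pairs) sprayed on upper leaf surfaces at 600 ppm, then inoculated 24 h later with 10^6 conidia/ml. Kept 4 days at 22 °C, high humidity; disease control rated from % leaf area with lesions against untreated or diluent controls.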

Venturia inaequalis = test: Activity against apple scab in-vitro (VII); format: cell-based; conditions: 10 ppm, 10 days, 20° C., mycelial growth
In short: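 Compound in acetone was tested at 10 ppm final in half-strength Potato Dextrose Broth inoculated with V. inaequalis mycelial fragments and spores at 5×10^4 propagules/ml. After 10 days at 20° C, mycelial growth was rated against untreated or diluent controls.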

Phytophthora infestans = format: in vivo; conditions: tomato, direct protectant foliar spray
[3] = test system: Erysiphe graminis f.sp. hordei; test: Direct protectant activity against barley powdery mildew (EGP); format: in vivo; conditions: direct protectant foliar spray, 8 days
In short: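 Barley seedlings (cv Golden Promise, single-leaf stage) were foliar-sprayed, held 24 h at 18 °C/40% RH, then dusted with mildew conidia. After 8 days at 18 °C/40% RH, sporulating leaf area was scored as a rating against untreated or diluent-sprayed controls.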

| SMILES | disease control rating PO (Pyricularia oryzae) | disease control rating PVA (Plasmopara viticola) | disease control rating AS (Alternaria solani) | disease control rating RSI (Rhizoctonia solani) | disease control rating PHI [1] | disease control rating LN (Leptosphaeria nodorum) | disease control rating EGT [2] | disease control rating BCB (Botrytis cinerea) | disease control rating VII (Venturia inaequalis) | disease control rating PIP (Phytophthora infestans) | disease control rating EGP [3] |
| --- | --- | --- | --- | --- | --- | --- | --- | --- | --- | --- | --- |
| CCCN(C(CC)CC)C1COC2(CCC(C(C)(C)C)CC2)C1 (stereo not drawn) [Compound 96] | 0 (less than 50% disease control) | 0 (less than 50% disease control) | 0 (less than 50% disease control) | 1 (about 50-80% disease control) | 0 (less than 50% disease control) | 0 (less than 50% disease control) | 2 (greater than 80% disease control) | 0 (less than 50% disease control) | 1 (about 50-80% disease control) | 0 (less than 50% disease control) | 2 (greater than 80% disease control) |
| CC(C)(C)C1CCC2(CC1)CC(N)CO2 (stereo not drawn) [Compound 97, 3-amino-8-t-butyl-1-oxaspiro(4,5)-decane] | 0 (less than 50% disease control) | 0 (less than 50% disease control) | 0 (less than 50% disease control) | 0 (less than 50% disease control) | 0 (less than 50% disease control) | 0 (less than 50% disease control) | 2 (greater than 80% disease control) | 0 (less than 50% disease control) | 0 (less than 50% disease control) | 2 (greater than 80% disease control) | 2 (greater than 80% disease control) |
| CC(C)(C)C1CCC2(CC1)CC(NC1CCC3CCCCC3C1)CO2 (stereo not drawn) [Compound 98] | 0 (less than 50% disease control) | 0 (less than 50% disease control) | 0 (less than 50% disease control) | 1 (about 50-80% disease control) | 0 (less than 50% disease control) | 0 (less than 50% disease control) | 2 (greater than 80% disease control) | 2 (greater than 80% disease control) | 2 (greater than 80% disease control) | 2 (greater than 80% disease control) | 2 (greater than 80% disease control) |
| CCCC(CCC)NC1COC2(CCC(C(C)(C)C)CC2)C1 (stereo not drawn) [Compound 99, 3-Hept-4-ylamino-8-t-butyl-1-oxaspiro(4,5)-decane] | 0 (less than 50% disease control) | 0 (less than 50% disease control) | 0 (less than 50% disease control) | 0 (less than 50% disease control) | 0 (less than 50% disease control) | 0 (less than 50% disease control) | 2 (greater than 80% disease control) | 0 (less than 50% disease control) | 2 (greater than 80% disease control) | 2 (greater than 80% disease control) | 2 (greater than 80% disease control) |
| CC(C)(C)C1CCC2(CC1)CC(NCCC1CCCCC1)CO2 (stereo not drawn) [Compound 100] | 0 (less than 50% disease control) | 0 (less than 50% disease control) | 0 (less than 50% disease control) | 1 (about 50-80% disease control) | 1 (about 50-80% disease control) | 0 (less than 50% disease control) | 2 (greater than 80% disease control) | 2 (greater than 80% disease control) | 2 (greater than 80% disease control) | 2 (greater than 80% disease control) | 2 (greater than 80% disease control) |
| CCCCCC(C)NC1COC2(CCC(C(C)(C)C)CC2)C1 (stereo not drawn) [Compound 101] | 0 (less than 50% disease control) | 0 (less than 50% disease control) | 0 (less than 50% disease control) | 0 (less than 50% disease control) | 1 (about 50-80% disease control) | 0 (less than 50% disease control) | 2 (greater than 80% disease control) | 2 (greater than 80% disease control) | 2 (greater than 80% disease control) | 0 (less than 50% disease control) | 2 (greater than 80% disease control) |
| CCCCC(CC)NC1COC2(CCC(C(C)(C)C)CC2)C1 (stereo not drawn) [Compound 102] | 0 (less than 50% disease control) | 0 (less than 50% disease control) | 0 (less than 50% disease control) | 0 (less than 50% disease control) | 0 (less than 50% disease control) | 0 (less than 50% disease control) | 2 (greater than 80% disease control) | 1 (about 50-80% disease control) | 2 (greater than 80% disease control) | 0 (less than 50% disease control) | 2 (greater than 80% disease control) |
| C=CCN(CC=C)C1COC2(CCC(C(C)(C)C)CC2)C1 (stereo not drawn) [Compound 103] | 0 (less than 50% disease control) | 0 (less than 50% disease control) | 0 (less than 50% disease control) | 0 (less than 50% disease control) | 0 (less than 50% disease control) | 0 (less than 50% disease control) | 2 (greater than 80% disease control) | 2 (greater than 80% disease control) | 1 (about 50-80% disease control) | 2 (greater than 80% disease control) | 2 (greater than 80% disease control) |
| CC(C)(C)C1CCC2(CC1)CC(NC1CCCCCC1)CO2 (stereo not drawn) [Compound 104] | 0 (less than 50% disease control) | 0 (less than 50% disease control) | 0 (less than 50% disease control) | 0 (less than 50% disease control) | 0 (less than 50% disease control) | 1 (about 50-80% disease control) | 2 (greater than 80% disease control) | 0 (less than 50% disease control) | 1 (about 50-80% disease control) | 2 (greater than 80% disease control) | 2 (greater than 80% disease control) |
